Test [1] has as its system human cervix adenocarcinoma (HeLa) cells. The experiment in a line: Phototoxicity testing, MTT assay, HeLa. In kind it is cell-based. On the procedure: (§1) The cells were treated with tested compounds diluted in Earle’s balanced salt solution (EBSS) for 1 h in the dark to allow the complexes to penetrate the cells. Afterward, the cells were irradiated for 1 h with blue light (LZC-4 photoreactor equipped with 16 lamps LZC-420, λmax = 420 nm) or sham irradiated. EBSS containing an Ir complex was then removed, and cells were incubated in the complete, drug-free Dulbecco’s modified Eagle’s medium (DMEM).
(§2) The metabolic activity of the cells (proportional to number of viable cells) was determined 72 h after irradiation using the standard 3-[4,5-dimethylthiazol-2-yl]-2,5 diphenyl tetrazolium bromide (MTT) assay. […] For comparative purposes (and at the reviewer’s request), the clinically used metallodrug cisplatin was included in the experiment.
Therefore, the photoactivation of Ir2 was tested also using a green (λmax = 545 nm) or red (λmax = 613 nm) light irradiation. For this experiment, samples were irradiated with a visible cool white lamp (LZC-Vis, Luzchem), and the appropriate green or red filter was applied; spectral characteristics can be seen in Figure S58.
The phototoxic potency of Ir complexes 1–4 was determined against human cancer Hela, A375, and HCT116 cell lines. […] The number of cells was determined using a standard MTT or SRB assay. […] The phototoxic index (PI) was calculated as a ratio of IC50 (dark)/IC50 (irradiated).
In general terms: Formazan colour is commonly taken as a measure of viable cells.

Test [2] deals with human skin melanoma cells A375. The experiment in a line: Phototoxicity testing, MTT assay, A375. Type of test: cell-based. Conditions: MTT 72 h. On the procedure: as §1, §2
(§3) The phototoxic potency of Ir complexes 1–4 was determined against human cancer Hela, A375, and HCT116 cell lines. Cells were seeded on 96-well tissue culture plates at a density of 5 × 10^3 cells/well in 100 μL of complete DMEM medium and cultured overnight in a humidified incubator. […] The number of cells was determined using a standard MTT or SRB assay. […] The phototoxic index (PI) was calculated as a ratio of IC50 (dark)/IC50 (irradiated).

In test [3] the test system is human colon adenocarcinoma HCT116 cells. The experiment in a line: Phototoxicity testing, MTT assay, HCT116. Type of test: cell-based. Conditions: MTT 72 h. On the procedure:
as §1, §2, §3

The subject of test [4] is human lung fibroblast MRC5 cells. The experiment in a line: Long-term dark effect on noncancerous cells, MTT, MRC5. In kind it is cell-based. Particulars: continuous exposure 48 h. On the procedure: The low toxicity of nonirradiated Ir complexes toward human noncancerous cells was confirmed by the fact that their effect was very low or even undetectable during long-term exposure when the human primary prostate epithelial hTERT EP156T and human lung fibroblast MRC5 cells were exposed to the complexes continuously for 48 h (Table 2).
After the period of incubation, an MTT assay was performed and evaluated.

In another test the test system is caspase-3 in HeLa cells. The experiment in a line: Caspase-3/7 activity assay. In kind it is cell-based, human. Particulars: equitoxic concentrations, 1 h dark, 1 h irradiation 420 nm, 2 h recovery. On the procedure: Figure 7 and Figure S59 show the morphological alteration observed 2 h after the HeLa cells were treated with Ir complexes 1–4 at their equitoxic concentrations (IC50,72h) and irradiated. […] The whole cells were swollen and rounded (Figure 7B–E). A significant cytoplasm blebbing was evident in the early stages of the process (Figure 7F). The bubbles around the cells were completely clean inside (Figure 7F), distinguishing them from the budding process typical of apoptosis.
The activation of caspase-3 was detected using CellEvent Caspase-3/7 Green - Active Caspase-3/7 Assay Kit (Thermo Fisher Scientific). Briefly, HeLa cells were seeded at a 6-well plate at 3 × 10^5 cells/well density and treated and irradiated as described above (1 h preincubation in the dark, 1 h irradiation at 420 nm). After 2 h of recovery in compound-free media, cells were stained with the CellEventCaspase 3/7 Green Detection Reagent according to the manufacturer’s protocol, and the fluorescence signal was analyzed by flow cytometry.

Here are results for 2 compounds from PMC10788912 (Journal of Medicinal Chemistry, 2023).

Where two headings read alike, the source gives them in different places.

On to `N.N.[Cl][Pt][Cl]` [cisPt, cisplatin], for which the IC50 – broadly, the concentration at which inhibition is half-maximal – was determined as 27 ± 3 µM in test [1] (1 h dark, then blue light 1 h, λmax = 420 nm, 58 ± 2 W m–2, MTT 72 h after irradiation, read-out: IC50 HeLa irrad); 23 ± 4 µM in test [1] (sham irradiated, MTT 72 h, read-out: IC50 HeLa sham irrad); 15 ± 2 µM in test [2] (blue light 1 h, λmax = 420 nm, 58 ± 2 W m–2, read-out: IC50 A375 irrad); 14 ± 1 µM in test [2] (sham irradiated, read-out: IC50 A375 sham irrad); 27 ± 7 µM in test [3] (blue light 1 h, λmax = 420 nm, 58 ± 2 W m–2, read-out: IC50 HCT116 irrad); 19 ± 4 µM in test [3] (sham irradiated, read-out: IC50 HCT116 sham irrad). Also, in test [4], the half-inhibitory concentration (IC50) worked out at 6 ± 0.7 µM.
For `CN[C@@H]1C[C@H]2O[C@@](C)([C@@H]1OC)n1c3ccccc3c3c4c(c5c6ccccc6n2c5c31)C(=O)NC4` [staurosporine], in the test with caspase-3 in HeLa cells, the caspase-3 activity result is on record as “significantly increased signal”.
